Measured values reported in PubChem BioAssay (NCI).
Where “and” joins values, the source holds several entries; their conditions need not be identical. Equal entries are not always repeated.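 Five concentrations, 48 hours, 96-well plates. GI50 = concentration required for 50% inhibition of growth. TGI is the concentration that stops growth completely.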

Assays:
Assay in all cases: DTP human tumour cell line panel, 48 h
SW-620 colon = tested on: SW-620 colon
MCF7 breast = tested on: MCF7 breast
HCC-2998 colon = tested on: HCC-2998 colon
A498 renal = tested on: A498 renal
K-562 leukemia = tested on: K-562 leukemia
SK-MEL-2 melanoma = tested on: SK-MEL-2 melanoma
SNB-75 CNS = tested on: SNB-75 CNS
HOP-92 NSCLC = tested on: HOP-92 NSCLC
HS 578T breast = tested on: HS 578T breast
DU-145 prostate = tested on: DU-145 prostate
TK-10 renal = tested on: TK-10 renal
HCT-116 colon = tested on: HCT-116 colon
BT-549 breast = tested on: BT-549 breast
HL-60(TB) leukemia = tested on: HL-60(TB) leukemia
RXF 393 renal = tested on: RXF 393 renal
IGROV1 ovarian = tested on: IGROV1 ovarian
LOX IMVI melanoma = tested on: LOX IMVI melanoma

Row | SMILES | TGI (SW-620 colon) | TGI (MCF7 breast) | TGI (HCC-2998 colon) | TGI (A498 renal) | TGI (K-562 leukemia) | TGI (SK-MEL-2 melanoma) | TGI (SNB-75 CNS) | TGI (HOP-92 NSCLC) [µM] | TGI (HS 578T breast) | TGI (DU-145 prostate) | TGI (TK-10 renal) | TGI (HCT-116 colon) | TGI (BT-549 breast) | TGI (HL-60(TB) leukemia) [µM] | TGI (RXF 393 renal) [µM] | TGI (IGROV1 ovarian) | TGI (LOX IMVI melanoma) | GI50 (SK-MEL-2 melanoma) | GI50 (SNB-75 CNS) | GI50 (BT-549 breast)
1 | CC1=C(CO)C(=O)O[C@@H]([C@@H](CO)[C@H]2CCC3C4C[C@@H](O)[C@@]5(O)CC=CC(=O)[C@]5(C)C4CC[C@@]32C)C1 (stereo not given in full) | > 100 µM | > 100 µM | > 100 µM | > 100 µM | > 100 µM | > 100 µM | > 100 µM | > 100 | > 100 µM | > 100 µM | > 100 µM | > 100 µM | > 100 µM | > 100 | 92.9 | > 100 µM | > 100 µM | – | – | –
2 | Nc1nc(Cl)cc(NCC2(CO)CCCC2)n1 | > 100 µM | > 100 µM | > 100 µM | > 100 µM | > 100 µM | > 100 µM | > 100 µM | > 100 | > 100 µM | > 100 µM | > 100 µM | > 100 µM | > 100 µM | > 100 | > 100 | > 100 µM | > 100 µM | – | – | –
3 | CCOC(=O)NC(Nc1ccc([N+](=O)[O-])cc1)(C(F)(F)F)C(F)(F)F | > 100 µM | > 100 µM | > 100 µM | > 100 µM | > 100 µM | > 100 µM | > 100 µM | > 100 | > 100 µM | > 100 µM | > 100 µM | > 100 µM | > 100 µM | > 100 | 97.1 | > 100 µM | > 100 µM | – | – | –
4 | COc1ccc(NS(=O)(=O)c2ccc(NC(NC(=O)CC(C)C)(C(F)(F)F)C(F)(F)F)cc2)nn1 | > 100 µM | > 100 µM | > 100 µM | > 100 µM | > 100 µM | > 100 µM | > 100 µM | > 100 | > 100 µM | > 100 µM | > 100 µM | > 100 µM | > 100 µM | > 100 | > 100 | > 100 µM | > 100 µM | – | – | –
5 | C=CCOc1ccc(C2C(C(=O)OCC)C(=O)CC(C)(O)C2C(=O)OCC)cc1OC (stereo not given) | > 100 µM | > 100 µM | > 100 µM | > 100 µM | > 100 µM | > 100 µM | > 100 µM | > 100 | > 100 µM | > 100 µM | > 100 µM | > 100 µM | > 100 µM | > 100 | > 100 | > 100 µM | > 100 µM | – | – | –
6 | CN(C)CCOC1(Cc2ccc(F)cc2)CCC(C(C)(C)C)CC1 (stereo not given) | 16.6 µM and 20.7 µM | 14.3 µM and 18.3 µM | 12.3 µM and 12.7 µM | 26 µM and 29.3 µM | 5.05 µM and 7.04 µM | 24.4 µM and 8.73 µM | 17.2 µM and 16.5 µM | 25.3 | 32.3 µM and 28 µM | 21.4 µM and 22.3 µM | 20.5 µM and 24.7 µM | 15.6 µM and 15.9 µM | 13.3 µM and 20.9 µM | 13.1 | 8.04 | 23.8 µM and 24.3 µM | 7.05 µM and 10.5 µM | 10.8 µM and 2.78 µM | 4.03 µM and 8.49 µM | 3.29 µM and 8.02 µM
7 | CCOC(=O)NC(Nc1cccc(C(F)(F)F)c1)(C(F)(F)F)C(F)(F)F | > 100 µM | > 100 µM | > 100 µM | > 100 µM | > 100 µM | > 100 µM | > 100 µM | > 100 | > 100 µM | > 100 µM | > 100 µM | > 100 µM | > 100 µM | > 100 | > 100 | > 100 µM | > 100 µM | – | – | –
8 | N#Cc1c(Cl)cc(Cl)n2c1nc1ccccc12 | > 45 µM | 24 µM | 8.44 µM | 47.3 µM | 11.5 µM | 33.4 µM | 32.7 µM | > 21.9 | 32.8 µM | 31.8 µM | 18.1 µM | 29.8 µM | 15.5 µM | > 31.1 | 26.7 | 38.7 µM | 18.7 µM | – | – | –
9 | O=C(O)c1ccc(OCc2nc3cc(C(F)(F)F)ccc3nc2-c2ccccc2)cc1 | > 100 µM | > 100 µM | > 100 µM | > 100 µM | > 100 µM | > 100 µM | 98.7 µM | > 100 | > 100 µM | > 100 µM | > 100 µM | > 100 µM | > 100 µM | > 100 | > 100 | > 100 µM | > 100 µM | – | – | –
10 | Cn1c(COC(=O)Nc2ccccc2)c(COC(=O)Nc2ccccc2)c2ccc3cc(Cl)c(Cl)cc3c21 | > 75 µM | 10.6 µM | 15.8 µM | 4.25 µM | > 75 µM | 17.9 µM | 19.2 µM | 7.54 | 29 µM | 31 µM | 22.7 µM | 38.5 µM | 12.6 µM | 10.4 | 39.5 | 23.5 µM | 13.5 µM | – | – | –
11 | CC(C)(C)OC(=O)NCCCNC1(c2cc3ccccc3s2)CCCCC1 | 40.9 µM | 30.6 µM | 14.3 µM | 29.8 µM | 26.3 µM | 37.6 µM | 30.2 µM | 22.6 | 45.7 µM | 32.2 µM | 32 µM | 24.8 µM | 27 µM | 28 | 29.8 | 32.2 µM | 35.2 µM | – | – | –
